Here are results for three molecules from patent US20040082614A1, “Methods of treating infection using anitbiotics and glycogen phosphorylase inhibitors” (Pfizer Inc., priority 2002, published 2004).

Where two headings read alike, the source gives them in different places. Bounds are passed on as bounds.

Type in all cases: cell-based
In data set [1] the test system is Chlamydia pneumonia. The experiment in a line: Minimum inhibitory concentration (MIC) determination in Hep2 cells infected with Chlamydia pneumonia, inclusion bodies by fluorescent microscopy. To be noted: for antibacterial effects of the combination with azithromycin: MIC and MBC. Here is the method:
(§1) Hep2 cells maintained in Isocove's Modified Dulbecco's Medium (IMDM) were infected with Chlamydia pneumonia (0.5 MOI for two hours after one hour centrifugation). Cells were then treated with Compound A (0, 5, 10, 20, 30 or 40 μg/ml) or Compound B (0, 5, 10, 20, 30 or 40 μg/ml) alone and/or in combination with azithromycin (Pfizer, Inc., New York, N.Y.) 0, 0.005, 0.0158, 0.050, 0.158, or 0.5 μg/ml). For minimum inhibitory concentration (MIC) determination, cells were terminated for analysis at 72 h after the addition of drugs. For minimum bacteriocidal concentration (MBC) determination, drugs were removed at 72 h post-treatment, the media was replaced, and cells were maintained for an additional 72 h before termination. At termination, cells were analyzed for quantitation of inclusion bodies using fluorescent microscopy, and general cell viability by microscopic visualization.

In data set [2] the test system is Chlamydia pneumonia. The experiment in a line: Minimum bacteriocidal concentration (MBC) determination in Hep2 cells infected with Chlamydia pneumonia, drugs removed at 72 h, further 72 h. To be noted: for reduction of the MBC for azithromycin by the glycogen phosphorylase inhibitor: summary statement, combination with azithromycin. Here is the method: as §1
Another data set relates to Hep2 cells. The data set is described as follows: General cell viability / host cell appearance by microscopic visualization. Here is the method:
as §1

Where [3] appears, read: Chlamydia, 72 h, drug alone, 72 h after addition of drugs, read-out: MIC.
The mark [4] stands for this setting: combined with 5 μg/ml Compound A.
[5] abbreviates: combined with 30 μg/ml Compound B.
[6] abbreviates: Chlamydia, 72 h, drug alone, drugs removed at 72 h, additional 72 h, read-out: MBC.

Regarding `CC[C@H]1OC(=O)[C@H](C)[C@@H](O[C@H]2C[C@@](C)(OC)[C@@H](O)[C@H](C)O2)[C@H](C)[C@@H](O[C@@H]2O[C@H](C)C[C@H](N(C)C)[C@H]2O)[C@](C)(O)C[C@@H](C)CN(C)[C@H](C)[C@@H](O)[C@]1(C)O` [Azithromycin, 9a-aza-9a-methyl-9-deoxo-9a-homoerythromycin A], the MIC with Chlamydia pneumonia [1] (setting [3]) worked out at 0.158 µg/mL; in the data set with Chlamydia pneumonia [1] (Chlamydia, combined with 5 μg/ml Compound A, read-out: azithromycin concentration required for MIC) it was 0.05 µg/mL; with Chlamydia pneumonia [1] (Chlamydia, combined with 10 μg/ml Compound A, read-out: azithromycin concentration required for MIC), 0.0158 µg/mL; in the data set with Chlamydia pneumonia [1] (Chlamydia, combined with 10 μg/ml Compound B, read-out: azithromycin concentration required for MIC) it was 0.05 µg/mL; with Chlamydia pneumonia [1] (Chlamydia, combined with 30 μg/ml Compound B, read-out: azithromycin concentration required for MIC), 0.0158 µg/mL. Besides, the “decrease in azithromycin concentration required for MIC” value with Chlamydia pneumonia [1] (setting [4]) is reported as 3 fold; with Chlamydia pneumonia [1] (combined with 10 μg/ml Compound A), 10 fold; with Chlamydia pneumonia [1] (combined with 10 μg/ml Compound B), 3 fold; in the data set on Chlamydia pneumonia [1] (setting [5]), 10 fold. Besides, the MBC in the data set with Chlamydia pneumonia [2] (setting [6]) was found to be 0.5 µg/mL; with Chlamydia pneumonia [2] (Chlamydia, combined with 5 μg/ml Compound A, read-out: azithromycin concentration required for MBC), 0.158 µg/mL; in the data set with Chlamydia pneumonia [2] (Chlamydia, combined with 20 μg/ml Compound A, read-out: azithromycin concentration required for MBC), 0.05 µg/mL; with Chlamydia pneumonia [2] (Chlamydia, combined with 30 μg/ml Compound B, read-out: azithromycin concentration required for MBC) it was 0.158 µg/mL. In addition, the “decrease in azithromycin concentration required for MBC” value in the data set on Chlamydia pneumonia [2] (setting [4]) was determined as 3 fold; in the data set with Chlamydia pneumonia [2] (combined with 20 μg/ml Compound A), 10 fold; in the data set with Chlamydia pneumonia [2] (setting [5]) it was 3 fold.
Take `O=C(N[C@@H](Cc1ccc(F)cc1)C(=O)N1CCC(O)CC1)c1cc2cc(Cl)ccc2[nH]1` [Compound A, 5-chloro-1H-indole-2-carboxylic acid [(1S)-(4-fluoro-benzyl)-2-(4-hydroxypiperidin-1-yl)-2-oxo-ethyl]-amide]: the “concentrations associated with changes in host cell appearance” value in the data set with Hep2 cells (Hep2 host cells) is at least 30000 ng/mL. Moreover, in the data set with Chlamydia pneumonia [1] (setting [3]), the MIC came to 20 µg/mL. The “antibacterial effects of the combination with azithromycin” value in the data set with Chlamydia pneumonia [1] is given as “synergy of antibacterial effects”. Moreover, in the data set on Chlamydia pneumonia [2] (setting [6]), the MBC was determined as 30 µg/mL. In the data set on Chlamydia pneumonia [2], the “reduction of the MBC for azithromycin by the glycogen phosphorylase inhibitor” value was 3-10 fold.
Turning to `O=C(N[C@@H](Cc1ccccc1)[C@@H](O)C(=O)N1C[C@@H](O)[C@@H](O)C1)c1cc2cc(Cl)ccc2[nH]1` [Compound B], in the data set on Hep2 cells, the “changes in host cell appearance” value was “not associated with any changes in host cell appearance”. In addition, the “antibacterial effects of the combination with azithromycin” value in the data set on Chlamydia pneumonia [1] is listed as “synergy of antibacterial effects”. Moreover, the MIC in the data set with Chlamydia pneumonia [1] (drug alone, 72 h after addition of drugs) is above 40 µg/mL. For the same molecule, the MBC in the data set on Chlamydia pneumonia [2] (drug alone, drugs removed at 72 h, additional 72 h) was above 40 µg/mL. The “reduction of the MBC for azithromycin by the glycogen phosphorylase inhibitor” value in the data set on Chlamydia pneumonia [2] turned out to be 3 fold.
